{
  "source": "patent US11339203B2",
  "about": "“Antitumor peptide and use thereof” (TOAGOSEI CO., LTD., priority 2018, dated 2022)",
  "key": {"[1]": {"test_system": "human alveolar epithelial cell carcinoma cell line (A549)", "format": "cell-based", "settings": "48 h", "experimental": "(§1) CAKI2 cells were cultured and adjusted to cell count of about 5×10^3 cells per single well of 96-well plate. The amount of medium at this time was made to be 100 μL per well. Next, the 96-well plate was arranged in a CO2 incubator and incubated for about 1 day (21 hours to 24 hours) under conditions of 37° C. and 5% CO2. Subsequently, peptide-containing test media were respectively prepared for each concentration so that the concentration of each sample peptide targeted for evaluation was 12.5 μM and 25 μM followed by supplying to the wells in which the cells targeted for evaluation were cultured (namely, the wells following the above-mentioned incubation) so that the amount of media was 90 μL per well. The 96-well plate was then returned to CO2 incubator followed by incubating for 48 hours under conditions of 37° C. and 5% CO2. The number of wells (n) at each concentration in each peptide addition test group was set to 3. Thus, the values of the results indicated in the following table are the average values of the results respectively obtained for 3 test wells. Cell viability (%) was determined in the manner described below. Following completion of incubation for 48 hours as described above, the medium in each well was replaced with 100 μL of fresh medium not containing peptide followed by further adding a reagent for measuring cell proliferation in the form of “Cell Counting Kit-8” (Dojindo Laboratories) containing “water-soluble tetrazolium salt (WST-8)” as a coloring reagent at 10 μL per well. Subsequently, the 96-well plate was again returned to CO2 incubator and incubated for 1.5 hours to 2 hours under conditions of 37° C. and 5% CO2. Following completion of incubation, cell viability (%) was evaluated using a colorimetric method consisting of recovering the cell culture liquid containing the above-mentioned reagent together with measuring absorbance at wavelength of 450 nm based on reduction of tetrazolium salt (value corrected for absorbance at a wavelength of 650 nm: A450 to A650). More specifically, the cell viability (%) of each test cell line was calculated from the measured absorbance as a relative value based on cell viability of 100% for the measured value (measured absorbance) of the comparison test group that underwent incubation for 48 hours as described above in only medium not containing peptide. Antitumor activity was evaluated for Sample 2 in above-mentioned Test Example 1 targeted at multiple types of human-derived cultured tumor cells. […]"}, "[2]": {"test_system": "human non-small cell lung cancer cell line (NCI-H2444)", "format": "cell-based", "settings": "48 h", "experimental": "as §1"}, "in vitro": {"assay": "in vitro", "format": "cell-based, human", "settings": "human", "experimental": "(§2) CAKI2 cells were cultured and adjusted to cell count of about 5×10^3 cells per single well of 96-well plate. The amount of medium at this time was made to be 100 μL per well. Next, the 96-well plate was arranged in a CO2 incubator and incubated for about 1 day (21 hours to 24 hours) under conditions of 37° C. and 5% CO2. Subsequently, peptide-containing test media were respectively prepared for each concentration so that the concentration of each sample peptide targeted for evaluation was 12.5 μM and 25 μM followed by supplying to the wells in which the cells targeted for evaluation were cultured (namely, the wells following the above-mentioned incubation) so that the amount of media was 90 μL per well. The 96-well plate was then returned to CO2 incubator followed by incubating for 48 hours under conditions of 37° C. and 5% CO2. The number of wells (n) at each concentration in each peptide addition test group was set to 3. Thus, the values of the results indicated in the following table are the average values of the results respectively obtained for 3 test wells. Cell viability (%) was determined in the manner described below. […] Following completion of incubation, cell viability (%) was evaluated using a colorimetric method consisting of recovering the cell culture liquid containing the above-mentioned reagent together with measuring absorbance at wavelength of 450 nm based on reduction of tetrazolium salt (value corrected for absorbance at a wavelength of 650 nm: A450 to A650). More specifically, the cell viability (%) of each test cell line was calculated from the measured absorbance as a relative value based on cell viability of 100% for the measured value (measured absorbance) of the comparison test group that underwent incubation for 48 hours as described above in only medium not containing peptide. Antitumor activity was evaluated for Sample 2 in above-mentioned Test Example 1 targeted at multiple types of human-derived cultured tumor cells. […]"}, "[3]": {"test_system": "normal human mammary epithelial cells (MCF-12F)", "assay": "in vitro", "format": "cell-based", "settings": "each tumor cell line (CAKI2, PC-3, A2058, H2444, A549) versus MCF-12F; result in words", "experimental": "as §2"}},
  "note": "Read-outs that look alike come from different tables or passages of the source. Where no end group is shown, it is not given here.",
  "data": [
    {"substance": "FIGNLALSDLLAGVAYTANLLLKKRTLRKNDRKKR-NH2 [Sample 2]", "values": [
      {"measurement": "Cell Viability (%)", "setting": "[1]; 12.5 μM", "result": 25.4, "unit": "%"},
      {"measurement": "Cell Viability (%)", "setting": "[1]; 25 μM", "result": 1.4, "unit": "%"},
      {"measurement": "Cell Viability (%)", "setting": "[2]; 12.5 μM", "result": 11, "unit": "%"},
      {"measurement": "Cell Viability (%)", "setting": "[2]; 25 μM", "result": 0.6, "unit": "%"},
      {"measurement": "viability at 48 h, 12.5 μM", "setting": "in vitro", "result": 59.6, "unit": "%"},
      {"measurement": "viability at 48 h, 25 μM", "setting": "in vitro", "result": 13.8, "unit": "%"},
      {"measurement": "antitumor activity against tumor cells in comparison with normal cells", "setting": "[3]", "result": "more potent antitumor activity"}
    ]}
  ]
}
